Assay results: ChEMBL document CHEMBL1201862, “PubChem BioAssay data set” (2004)
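1) Cells in 96-well plates. 2) Compound, 48 h, 5 concentrations. 3) Linear interpolation between surrounding doses. 4) Unreached endpoint = highest concentration. GI50 = concentration required for 50% inhibition of growth.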 The source made the active and inactive calls. No stated cut-off is given here; in the data, active = GI50 up to about 1.1 µM and inactive = higher.

How the values were obtained:
Test in all cases: growth of human tumour cells (NCI), 48 h
HCT-116 = test system: HCT-116
SNB-19 = test system: SNB-19
A498 = test system: A498
SK-OV-3 = test system: SK-OV-3
SF-268 = test system: SF-268
NCI-H226 = test system: NCI-H226
SK-MEL-2 = test system: SK-MEL-2
Malme-3M = test system: Malme-3M
UO-31 = test system: UO-31
HCT-15 = test system: HCT-15
MOLT-4 = test system: MOLT-4
OVCAR-4 = test system: OVCAR-4
NCI-H460 = test system: NCI-H460
ACHN = test system: ACHN
CCRF-CEM = test system: CCRF-CEM
NCI-H23 = test system: NCI-H23
SK-MEL-28 = test system: SK-MEL-28
SK-MEL-5 = test system: SK-MEL-5

Row | Structure (SMILES) | GI50 (HCT-116) | GI50 (SNB-19) | GI50 (A498) | GI50 (SK-OV-3) | GI50 (SF-268) | GI50 (NCI-H226) | GI50 (SK-MEL-2) | GI50 (Malme-3M) | GI50 (UO-31) | GI50 (HCT-15) | GI50 (MOLT-4) | GI50 (OVCAR-4) | GI50 (NCI-H460) | GI50 (ACHN) | GI50 (CCRF-CEM) | GI50 (NCI-H23) | GI50 (SK-MEL-28) | GI50 (SK-MEL-5)
1 | COC(=O)C1=C(C)N(NC(N)=O)C2(N)N(NC(N)=O)C(C)=C(C(=O)OC)C12C(=O)OC (stereo not drawn) | > 100 µM (inactive) | > 100 µM (inactive) | > 100 µM (inactive) | > 100 µM (inactive) | > 100 µM (inactive) | > 100 µM (inactive) | > 100 µM (inactive) | > 100 µM (inactive) | > 100 µM (inactive) | > 100 µM | > 100 µM (inactive) | > 100 µM (inactive) | > 100 µM (inactive) | > 100 µM (inactive) | > 100 µM (inactive) | > 100 µM (inactive) | > 100 µM (inactive) | –
2 | COc1ccc(-c2nc3c(nc2-c2ccc(OC)cc2)C(N)=NS(=O)(=O)N3)cc1 | – | > 100 µM (inactive) | > 100 µM (inactive) | > 100 µM (inactive) | > 100 µM (inactive) | > 100 µM (inactive) | > 100 µM (inactive) | > 100 µM (inactive) | > 100 µM (inactive) | > 100 µM | > 100 µM (inactive) | – | – | > 100 µM (inactive) | > 100 µM (inactive) | > 100 µM (inactive) | > 100 µM (inactive) | > 100 µM (inactive)
3 | CN(C)C(=S)Nc1nnc(Nc2ccccc2)s1 | > 100 µM (inactive) | > 100 µM (inactive) | > 100 µM (inactive) | > 100 µM (inactive) | – | > 100 µM (inactive) | > 100 µM (inactive) | > 100 µM (inactive) | > 100 µM (inactive) | > 100 µM | > 100 µM (inactive) | > 100 µM (inactive) | > 100 µM (inactive) | > 100 µM (inactive) | > 100 µM (inactive) | > 100 µM (inactive) | > 100 µM (inactive) | 38.7 µM (inactive)
4 | Nc1nc2ncn(CC(O)CO)c2c(=S)[nH]1 (stereo not drawn) | > 100 µM (inactive) | > 100 µM (inactive) | > 100 µM (inactive) | > 100 µM (inactive) | > 100 µM (inactive) | > 100 µM (inactive) | > 100 µM (inactive) | > 100 µM (inactive) | > 100 µM (inactive) | > 100 µM | – | > 100 µM (inactive) | > 100 µM (inactive) | > 100 µM (inactive) | > 100 µM (inactive) | – | > 100 µM (inactive) | > 100 µM (inactive)
5 | Cc1ccc(C2(O)CC(c3ccc([N+](=O)[O-])o3)=NN2C(=O)COc2ccc(Cl)cc2)cc1 (stereo not drawn) | 3.85 µM (inactive) | 6.62 µM (inactive) | 4.98 µM (inactive) | 15.3 µM (inactive) | 5.85 µM (inactive) | 17.1 µM (inactive) | 4.44 µM (inactive) | 11.6 µM (inactive) | 5.5 µM (inactive) | 3.1 µM | 3.26 µM (inactive) | 5.98 µM (inactive) | 6.3 µM (inactive) | 4.99 µM (inactive) | – | 5.2 µM (inactive) | 9.77 µM (inactive) | 2.32 µM (inactive)
6 | COc1ccc(-n2c(=O)[nH]n(C(C)=O)c2=O)cc1 | > 100 µM (inactive) | > 100 µM (inactive) | > 100 µM (inactive) | – | > 100 µM (inactive) | > 100 µM (inactive) | > 100 µM (inactive) | > 100 µM (inactive) | > 100 µM (inactive) | > 100 µM | > 100 µM (inactive) | > 100 µM (inactive) | > 100 µM (inactive) | > 100 µM (inactive) | > 100 µM (inactive) | > 100 µM (inactive) | > 100 µM (inactive) | > 100 µM (inactive)
7 | COc1ccc(C2S/C(=C\c3ccc([N+](=O)[O-])cc3)C(=O)N2NC(=O)Cc2ccccc2)cc1 (stereo not drawn) | 66.4 µM (inactive) | – | > 100 µM (inactive) | > 100 µM (inactive) | > 100 µM (inactive) | > 100 µM (inactive) | > 100 µM (inactive) | > 100 µM (inactive) | > 100 µM (inactive) | 79.8 µM | 87.3 µM (inactive) | > 100 µM (inactive) | > 100 µM (inactive) | > 100 µM (inactive) | 82.8 µM (inactive) | > 100 µM (inactive) | > 100 µM (inactive) | > 100 µM (inactive)
8 | O=C1Nc2ccccc2C12CCNC2Cc1ccccc1 (stereo not drawn) | > 100 µM (inactive) | 56.6 µM (inactive) | > 100 µM (inactive) | > 100 µM (inactive) | > 100 µM (inactive) | – | > 100 µM (inactive) | > 100 µM (inactive) | – | > 100 µM | > 100 µM (inactive) | > 100 µM (inactive) | > 100 µM (inactive) | > 100 µM (inactive) | > 100 µM (inactive) | > 100 µM (inactive) | > 100 µM (inactive) | > 100 µM (inactive)
9 | CCOc1ccc(N2C(=O)/C(=C/c3ccc(N(CCC#N)CCC#N)cc3)N=C2c2cc([N+](=O)[O-])ccc2Cl)cc1 | 21.6 µM (inactive) | 35.8 µM (inactive) | 48.6 µM (inactive) | > 100 µM (inactive) | 30.8 µM (inactive) | 42.4 µM (inactive) | > 100 µM (inactive) | – | 39.4 µM (inactive) | 33.8 µM | 0.191 µM (active) | 59 µM (inactive) | 23.5 µM (inactive) | 49.9 µM (inactive) | – | 40.8 µM (inactive) | 7.67 µM (inactive) | 18.6 µM (inactive)
